Reference: patent publication US11066414B2, “Cot modulators and methods of use thereof” (Gilead Sciences, Inc., priority 2015, dated 2021)

What follows are molecules tested against Human Cot (Homo sapiens (Human), UniProt P41279) (assay: High Throughput Cot Biochemical Assay). Details: IC50 HTRF, Cot HTRF (TR-FRET KinEASE) biochemical assay, 400 μM ATP.
Sequence of Human Cot (P41279 30-397): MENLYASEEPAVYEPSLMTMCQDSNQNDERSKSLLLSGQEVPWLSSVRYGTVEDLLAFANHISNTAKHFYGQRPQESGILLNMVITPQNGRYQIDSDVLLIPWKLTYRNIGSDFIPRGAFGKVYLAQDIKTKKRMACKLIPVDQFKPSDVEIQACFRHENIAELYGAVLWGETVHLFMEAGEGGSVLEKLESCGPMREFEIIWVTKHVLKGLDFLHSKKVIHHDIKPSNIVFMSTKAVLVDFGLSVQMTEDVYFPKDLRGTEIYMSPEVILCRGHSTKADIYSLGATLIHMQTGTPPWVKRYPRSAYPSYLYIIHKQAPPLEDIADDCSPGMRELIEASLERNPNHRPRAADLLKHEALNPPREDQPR
Method: Human Cot enzyme activity was measured using KinEASE (Cisbio), a time-resolved fluorescence resonance energy transfer (TR-FRET) immunoassay. In this assay, Cot-catalyzes the phosporylation of a XL665-labeled peptide substrate. Europium conjugated phospho-tyrosine specific antibody binds the resulting phosphorylated peptide. Formation of phosphorylated peptide is quantified by TR-FRET with Europium as the donor and XL665 the acceptor in a 2-step endpoint assay. […] In brief, test compounds serially diluted in DMSO were delivered into Proxy white, low volume, 384 well plates using the Echo 550 acoustic liquid dispenser (Labcyte®). Cot enzyme and substrates were dispensed into assay plates using a Multi-Flo (Bio-Tek Instruments). The standard 5 μL reaction mixture contained 400 μM ATP, 1 μM STK3 peptide, 5 nM of Cot in reaction buffer (10 mM MOPS, pH 7.0, 0.02% NaN3, 0.5 mg/mL BSA, 10 mM MgOAc, 1 mM DTT, 0.025% NP-40, 1.5% glycerol) and 0.1% DMSO.

Question: With `C[C@@H](CF)n1cc([C@@H](Nc2cc(Cl)c3ncc(C#N)c(NCC(C)(C)C)c3c2)c2cccc3ncccc23)nn1` [Example 803, 8-chloro-6-(((S)-(1-((S)-1-fluoropropan-2-yl)-1H-1,2,3-triazol-4-yl)(quinolin-5-yl)methyl)amino)-4-(neopentylamino)quinoline-3-carbonitrile] as the molecule, how does the IC50 read?
Answer: 7 nM

Question: How did the IC50 turn out when `Cc1nc(F)ccc1[C@H](Nc1cc(C#N)c2ncc(C#N)c(NCC(C)(C)C)c2c1)c1cn(C(CF)CF)nn1` [Example 869, (S)-6-(((1-(1,3-difluoropropan-2-yl)-1H-1,2,3-triazol-4-yl)(6-fluoro-2-methylpyridin-3-yl)methyl)amino)-4-(neopentylamino)quinoline-3,8-dicarbonitrile] was run?
Answer: 2 nM

Question: With `Cc1nc(F)ccc1[C@H](Nc1cc(C#N)c2ncc(C#N)c(NCC(C)(C)C)c2c1)c1nnn(C)c1F` [Example 906, (S)-6-(((5-fluoro-1-methyl-1H-1,2,3-triazol-4-yl)(6-fluoro-2-methylpyridin-3-yl)methyl)amino)-4-(neopentylamino)quinoline-3,8-dicarbonitrile] as the molecule, how does the IC50 read?
Answer: 4 nM

Question: Which IC50 does the source give for `COc1c([C@@H](Nc2cc(C#N)c3ncc(C#N)c(NCC(C)(C)C)c3c2)c2ccc(F)nc2C)nnn1C1CC1` [Example 859, (S)-6-(((1-cyclopropyl-5-methoxy-1H-1,2,3-triazol-4-yl)(6-fluoro-2-methylpyridin-3-yl)methyl)amino)-4-(neopentylamino)quinoline-3,8-dicarbonitrile] here?
Answer: 2 nM

Question: For `Cc1nc(F)ccc1[C@H](Nc1cc(Cl)c2ncc(C#N)c(NCC(C)(C)C)c2c1)c1nnn(C2(C)CC2)c1F` [Example 947, (S)-8-chloro-6-(((5-fluoro-1-(1-methylcyclopropyl)-1H-1,2,3-triazol-4-yl)(6-fluoro-2-methyl-pyridin-3-yl)methyl)amino)-4-(neopentylamino)quinoline-3-carbonitrile], which IC50 is on record?
Answer: 3 nM

Same assay, conditions: IC50 HTRF, Cot HTRF (TR-FRET) biochemical assay

Question: How did the IC50 turn out when `CCN1CCc2c([C@H](Nc3cc(Cl)c4ncc(C#N)c(Nc5ccc(F)c(Cl)c5)c4c3)c3c[nH]nn3)csc2C1` [Example 270, (S)-8-chloro-4-((3-chloro-4-fluoro-phenyl)amino)-6-(((6-ethyl-4,5,6,7-tetrahydrothieno[2,3-c]pyridin-3-yl)(1H-1,2,3-triazol-4-yl)methyl)-amino)quinoline-3-carbonitrile] was run?
Answer: 4 nM

Question: With `Cc1ncccc1[C@H](Nc1cc(Cl)c2ncc(C#N)c(Nc3ccc(F)c(Cl)c3)c2c1)c1cn(C(C)C)nn1` [Example 282, (S)-8-chloro-4-((3-chloro-4-fluorophenyl)amino)-6-(((1-isopropyl-1H-1,2,3-triazol-4-yl)(2-methylpyridin-3-yl)methyl)amino)-quinoline-3-carboni trile] as the molecule, how does the IC50 read?
Answer: 3 nM

Question: How did the IC50 turn out when `CC(C)(C)CNc1c(C#N)cnc2c(Cl)cc(N[C@H](c3cn(C4(C(F)F)CC4)nn3)c3ccc(F)c4ncccc34)cc12` [Example 653, (S)-8-chloro-6-(((1-(1-(difluoromethyl)cyclopropyl)-1H-1,2,3-triazol-4-yl)(8-fluoroquinolin-5-yl)methyl)amino)-4-(neopentylamino)quinoline-3-carbonitrile] was run?
Answer: 4 nM

Question: How did the IC50 turn out when `CCN1CCC(n2cc(C(Nc3cc(Cl)c4ncc(C#N)c(Nc5ccc(F)c(Cl)c5)c4c3)c3cn(C)nn3)nn2)CC1` (stereo not drawn) [Example 396, 8-chloro-4-((3-chloro-4-fluoro-phenyl)amino)-6-(((1-(1-ethyl-piperidin-4-yl)-1H-1,2,3-triazol-4-yl)(1-methyl-1H-1,2,3-triazol-4-yl)methyl)amino)quinoline-3-carbonitrile] was run?
Answer: 43 nM

Question: Which IC50 does the source give for `N#Cc1cnc2c(Cl)cc(N[C@@H](c3cccnc3)c3cn(CCO)nn3)cc2c1Nc1ccc(F)c(Cl)c1` [Example 336, (S)-8-chloro-4-((3-chloro-4-fluoro-phenyl)amino)-6-(((1-(2-hydroxyethyl)-1H-1,2,3-triazol-4-yl)(pyridin-3-yl)methyl)amino)quinoline-3-carbonitrile] here?
Answer: 2 nM

Question: Which IC50 does the source give for `Cc1nc(F)ccc1[C@H](Nc1cc(C#N)c2ncc(C#N)c(NCC(C)(C)C)c2c1)c1cn(C23CC(C2)C3)nn1` [Example 649, (S)-6-(((1-(bicyclo[1.1.1]pentan-1-yl)-1H-1,2,3-triazol-4-yl)(6-fluoro-2-methylpyridin-3-yl)methyl)amino)-4-(neopentylamino)quinoline-3,8-dicarbonitrile] here?
Answer: 2 nM

Question: `CC(C)(C)CNc1c(C#N)cnc2c(Cl)cc(N[C@H](c3cn(C4(C(F)(F)F)CC4)nn3)c3ccc(F)c4ncccc34)cc12` [Example 617, (S)-8-chloro-6-(((8-fluoroquinolin-5-yl)(1-(1-(trifluoromethyl)cyclopropyl)-1H-1,2,3-triazol-4-yl)methyl)amino)-4-(neopentylamino)quinoline-3-carbonitrile] was tested. Which IC50 did it give?
Answer: 9 nM

Question: With `CC(C)(C)CNc1c(C#N)cnc2c(C#N)cc(N[C@H](c3cn(C4(C(F)(F)F)CC4)nn3)c3cccc4ccncc34)cc12` [Example 535, (S)-6-((isoquinolin-8-yl(1-(1-(trifluoro-methyl)cyclopropyl)-1H-1,2,3-triazol-4-yl)methyl)amino)-4-(neopentylamino)-quinoline-3,8-dicarbonitrile] as the molecule, how does the IC50 read?
Answer: 2 nM

Question: With `[2H]C([2H])(Nc1c(C#N)cnc2c(Cl)cc(N[C@@]([2H])(c3ccc(F)nc3)c3cn(C4CC4)nn3)cc12)C(C)(C)C` [Example 112, (S)-8-chloro-6-(((1-cyclopropyl-1H-1,2,3-triazol-4-yl)(6-fluoropyridin-3-yl)methyl-d)amino)-4-((2,2-dimethylpropyl-1,1-d2)amino)quinoline-3-carbonitrile] as the molecule, how does the IC50 read?
Answer: 2 nM

Question: How did the IC50 turn out when `CC(C)(C)CNc1c(C#N)cnc2c(Cl)cc(N[C@H](c3cn(C4(CO)CC4)nn3)c3cccc4ncsc34)cc12` [Example 458, (S)-6-((benzo[d]thiazol-7-yl(1-(1-(hydroxymethyl)cyclopropyl)-1H-1,2,3-triazol-4-yl)methyl)amino)-8-chloro-4-(neopentylamino)quinoline-3-carbonitrile] was run?
Answer: 4 nM

Question: Which IC50 does the source give for `Cc1nc(F)ccc1[C@H](Nc1cc(Cl)c2ncc(C#N)c(NCC(C)(C)C)c2c1)c1cn(C2(C#N)CC2)nn1` [Example 476, (S)-8-chloro-6-(((1-(1-cyanocyclopropyl)-1H-1,2,3-triazol-4-yl)(6-fluoro-2-methylpyridin-3-yl)methyl)amino)-4-(neopentylamino)-quinoline-3-carbonitrile] here?
Answer: 3 nM

Question: `N#Cc1cnc2c(Cl)cc(N[C@H](c3cn(C4CCNCC4)nn3)c3sccc3Cl)cc2c1Nc1ccc(F)c(Cl)c1` [Example 387, (R)-8-chloro-4-((3-chloro-4-fluoro-phenyl)amino)-6-(((3-chlorothiophen-2-yl)(1-(piperidin-4-yl)-1H-1,2,3-triazol-4-yl)methyl)amino)quinoline-3-carbonitrile] was tested. Which IC50 did it give?
Answer: 18 nM

Question: For `CC(C)(C)CNc1c(C#N)cnc2c(C#N)cc(N[C@H](c3cn(C4(C(F)F)CC4)nn3)c3cccc4ncsc34)cc12` [Example 424, (S)-6-((benzo[d]thiazol-7-yl(1-(1-(difluoromethyl)cyclopropyl)-1H-1,2,3-triazol-4-yl)methyl)amino)-4-(neopentylamino)quinoline-3,8-dicarbonitrile], which IC50 is on record?
Answer: 2 nM

Question: For `Cn1ccc2c([C@H](Nc3cc(Cl)c4ncc(C#N)c(NCC(C)(C)C(F)(F)F)c4c3)c3cn(C45CC(C4)C5)nn3)cccc2c1=O` [Example 785, (S)-6-(((1-(bicyclo[1.1.1]pentan-1-yl)-1H-1,2,3-triazol-4-yl)(2-methyl-1-oxo-1,2-dihydroisoquinolin-5-yl)methyl)amino)-8-chloro-4-((3,3,3-trifluoro-2,2-dimethylpropyl)amino)quinoline-3-carbonitrile], which IC50 is on record?
Answer: 2 nM

Question: With `CCN1CCC(n2cc([C@@H](Nc3cc(Cl)c4ncc(C#N)c(Nc5ccc(F)c(Cl)c5)c4c3)c3ccc(C(F)(F)F)s3)nn2)CC1` [Example 365, (R)-8-chloro-4-((3-chloro-4-fluorophenyl)amino)-6-(((1-(1-ethylpiperidin-4-yl)-1H-1,2,3-triazol-4-yl)(5-(trifluoromethyl)thiophen-2-yl)methyl)amino)quinoline-3-carbonitrile] as the molecule, how does the IC50 read?
Answer: 38 nM

Same assay, conditions: read-out: IC50 HTRF; Cot HTRF (TR-FRET KinEASE) biochemical assay, 400 μM ATP

Question: For `Cc1nc(F)ccc1[C@H](Nc1cc(C#N)c2ncc(C#N)c(NCC(C)(C)C)c2c1)c1nnn(C2(C3CC3)CC2)c1F` [Example 865], which IC50 is on record?
Answer: 4 nM

Same assay, conditions: read-out: IC50 HTRF; Cot HTRF (TR-FRET) biochemical assay

Question: `N#Cc1csc([C@H](Nc2cc(Cl)c3ncc(C#N)c(Nc4ccc(F)c(Cl)c4)c3c2)c2cn(CCN3CCOCC3)nn2)c1` [Example 332, (R)-8-chloro-4-((3-chloro-4-fluorophenyl)amino)-6-(((4-cyanothiophen-2-yl)(1-(2-morpho-linoethyl)-1H-1,2,3-triazol-4-yl)methyl)amino)quinoline-3-carbonitrile] was tested. Which IC50 did it give?
Answer: 65 nM

Question: `Cc1nc(F)ccc1[C@H](Nc1cc(Cl)c2ncc(C#N)c(NCC(C)(C)C)c2c1)c1cn(C(F)(F)CO)nn1` [Example 584, (S)-8-chloro-6-(((1-(i, 1-difluoro-2-hydroxyethyl)-1H-1,2,3-triazol-4-yl)(6-fluoro-2-methylpyridin-3-yl)methyl)amino)-4-(neopentylamino)quinoline-3-carbonitrile] was tested. Which IC50 did it give?
Answer: 2 nM

Question: `Cc1ncsc1[C@H](Nc1cc(Cl)c2ncc(C#N)c(NCC(C)(C)C)c2c1)c1cn(C2(C(F)(F)F)CC2)nn1` [Example 701, (R)-8-chloro-6-(((4-methylthiazol-5-yl)(1-(1-(trifluoromethyl)cyclopropyl)-1H-1,2,3-triazol-4-yl)methyl)airiino)-4-(neopentylamino)quinoline-3-carbonitrile] was tested. Which IC50 did it give?
Answer: 10 nM

Question: For `N#Cc1cnc2c(Cl)cc(N[C@@H](c3ccsc3)c3cn(C4CCNCC4)nn3)cc2c1Nc1ccc(F)c(Cl)c1` [Example 393, (S)-8-chloro-4-t-((3-chloro-4-fluoro-phenyl)amino)-6-(((1-(piperidin-4-yl)-1H-1,2,3-triazol-4-yl)(thiophen-3-yl)methyl)amino)quinoline-3-carbonitrile], which IC50 is on record?
Answer: 5 nM

Question: How did the IC50 turn out when `CC(C)(C)CNc1c(C#N)cnc2c(C#N)cc(N[C@H](c3cn(C4(C5CC5)CC4)nn3)c3cccc4ncccc34)cc12` [Example 696] was run?
Answer: 2 nM

Question: For `Cc1n[nH]c2cccc([C@H](Nc3cc(C#N)c4ncc(C#N)c(NCC(C)(C)C)c4c3)c3cn(C4(C(F)F)CC4)nn3)c12` [Example 571], which IC50 is on record?
Answer: 2 nM
